This note sets out measurements from BindingDB's records for doi:10.1002/bip.20588 (University of California Davis, 2006).

*1 amine or outer side, *2 acyl side, *3 side chain or, on linkers, in order; H or OH if unused. Where a SMILES comes first, the peptide text is derived from it. [ ]: non-standard residue; d: D form. The star is where a group is joined. ξ: configuration not given here. Pro(5R-Ph) = O=C(O)[C@@H]1CC[C@H](c2ccccc2)N1; Leu(4,5-dehydro) = C=C(C)C[C@H](N)C(=O)O; X14 = Cc1ccccc1NC(=O)Nc1ccc(N*)cc1; Ala(cPr) = N[C@@H](CC1CC1)C(=O)O; X1 = O=C(Cc1ccc(N[*:1])cc1)[*:2]; Aad = N[C@@H](CCCC(=O)O)C(=O)O; Ile(3ξ) = CCC(C)[C@H](N)C(=O)O; NH(2-Me-phenyl) = Cc1ccccc1N*; Tle = CC(C)(C)[C@H](N)C(=O)O; hLeu = CC(C)CC[C@H](N)C(=O)O; Isovaleryl = CC(C)CC(=O)*; Dpg = CCCC(N)(CCC)C(=O)O; Heptanoyl = CCCCCCC(=O)*; Nle = CCCC[C@H](N)C(=O)O; Dap = NC[C@H](N)C(=O)O; CO = O=C([*:1])[*:2]

The target in the assay is Integrin alpha-4/beta-1 (Homo sapiens, UniProt P05556+P13612, T112H). Kind of assay: Jurkat Cell Adhesion Inhibition Assay. As for the experimental part: Binding affinities (IC50) of the ligands were studied in a Jurkat cell adhesion assay by inhibiting the alpha-4/beta-1 mediated cell adhesion to CS-1 peptides. The 96-well plates were coated with neutravidin, followed by biotinconjugated CS-1 peptides. Jurkat cells with series dilutions of tested ligands in binding buffer were added and allowed to bind for 30 min. Bound cells were recorded using a 96-well plate reader at 570 nm. IC50 values were calculated from inhibition curves resulting from the concentration-dependent inhibition

What is called IC50 is the concentration at which inhibition is half-maximal. Low readings indicate inhibition by little substance, high ones a need for much substance. Regarding `CCCC[C@H](NC(=O)Nc1ccc(NC(=O)Nc2ccccc2C)cc1)C(=O)N[C@@H](CC(=O)O)C(=O)N[C@H](C(=O)N1CCC[C@H]1C(N)=O)C(C)CC` (stereo partly drawn) [(3S)-3-{[(2S,3S)-1-[(2S)-2-carbamoylpyrrolidin-1-yl]-3-methyl-1-oxopentan-2-yl]carbamoyl}-3-[(2S)-2-{[(4-{[(2-methylphenyl)carbamoyl]amino}phenyl)carbamoyl]amino}hexanamido]propanoic acid] ({X14-CO}-[Nle]D[Ile(3ξ)]P-NH2), the IC50 turned out to be 54 nM.

For `CCC(C)[C@H](NC(=O)[C@H](CC(=O)O)NC(=O)[C@@H](NC(=O)Cc1ccc(NC(=O)Nc2ccccc2C)cc1)C(C)(C)C)C(=O)N1CCC[C@H]1C(N)=O` (stereo partly drawn) [(3S)-3-{[(2S,3S)-1-[(2S)-2-carbamoylpyrrolidin-1-yl]-3-methyl-1-oxopentan-2-yl]carbamoyl}-3-[(2S)-3,3-dimethyl-2-[1-(4-{[(2-methylphenyl)carbamoyl]amino}phenyl)acetamido]butanamido]propanoic acid] ({NH(2-Me-phenyl)-CO}-[X1][Tle]D[Ile(3ξ)]P-NH2), the midpoint of inhibition, the IC50, lay at 7.1 nM.

Take `CCC(C)[C@H](NC(=O)[C@H](CC(=O)O)NC(=O)[C@H](CNC(=O)CC(C)C)NC(=O)Cc1ccc(NC(=O)Nc2ccccc2C)cc1)C(=O)N1CCC[C@H]1C(N)=O` (stereo partly drawn) [(3S)-3-{[(2S,3S)-1-[(2S)-2-carbamoylpyrrolidin-1-yl]-3-methyl-1-oxopentan-2-yl]carbamoyl}-3-[(2S)-3-(3-methylbutanamido)-2-[1-(4-{[(2-methylphenyl)carbamoyl]amino}phenyl)acetamido]propanamido]propanoic acid] ({NH(2-Me-phenyl)-CO}-[X1][Dap](Isovaleryl)D[Ile(3ξ)]P-NH2): the IC50 is 63 nM. Against the preceding molecule, the IC50 is about 8.9-fold higher.

The molecule `CCC(C)[C@H](NC(=O)[C@H](CC(=O)O)NC(=O)[C@H](CC1CC1)NC(=O)Cc1ccc(NC(=O)Nc2ccccc2C)cc1)C(=O)N1CCC[C@H]1C(N)=O` (stereo partly drawn) [(3S)-3-{[(2S,3S)-1-[(2S)-2-carbamoylpyrrolidin-1-yl]-3-methyl-1-oxopentan-2-yl]carbamoyl}-3-[(2S)-3-cyclopropyl-2-[1-(4-{[(2-methylphenyl)carbamoyl]amino}phenyl)acetamido]propanamido]propanoic acid] ({NH(2-Me-phenyl)-CO}-[X1][Ala(cPr)]D[Ile(3ξ)]P-NH2) displayed an IC50 of 64 nM.

`CCCCCCC(=O)NC[C@H](NC(=O)Cc1ccc(NC(=O)Nc2ccccc2C)cc1)C(=O)N[C@@H](CC(=O)O)C(=O)N[C@H](C(=O)N1CCC[C@H]1C(N)=O)C(C)CC` (stereo partly drawn) [(3S)-3-{[(2S,3S)-1-[(2S)-2-carbamoylpyrrolidin-1-yl]-3-methyl-1-oxopentan-2-yl]carbamoyl}-3-[(2S)-3-heptanamido-2-[1-(4-{[(2-methylphenyl)carbamoyl]amino}phenyl)acetamido]propanamido]propanoic acid] ({NH(2-Me-phenyl)-CO}-[X1][Dap](Heptanoyl)D[Ile(3ξ)]P-NH2): 312 nM corresponded to half-maximal inhibition (IC50).

`C=C(C)C[C@H](NC(=O)Cc1ccc(NC(=O)Nc2ccccc2C)cc1)C(=O)N[C@@H](CC(=O)O)C(=O)N[C@H](C(=O)N1CCC[C@H]1C(N)=O)C(C)CC` (stereo partly drawn) [(3S)-3-{[(2S,3S)-1-[(2S)-2-carbamoylpyrrolidin-1-yl]-3-methyl-1-oxopentan-2-yl]carbamoyl}-3-[(2S)-4-methyl-2-[1-(4-{[(2-methylphenyl)carbamoyl]amino}phenyl)acetamido]pent-4-enamido]propanoic acid] ({NH(2-Me-phenyl)-CO}-[X1][Leu(4,5-dehydro)]D[Ile(3ξ)]P-NH2) showed an IC50 of 2.8 nM.

Molecule `CCC(C)[C@H](NC(=O)[C@H](CC(=O)O)NC(=O)[C@H](CC(C)C)NC(=O)Cc1ccc(NC(=O)Nc2ccccc2C)cc1)C(=O)N1CCC[C@H]1C(N)=O` (stereo partly drawn) [(3S)-3-{[(2S,3S)-1-[(2S)-2-carbamoylpyrrolidin-1-yl]-3-methyl-1-oxopentan-2-yl]carbamoyl}-3-[(2S)-4-methyl-2-[1-(4-{[(2-methylphenyl)carbamoyl]amino}phenyl)acetamido]pentanamido]propanoic acid] ({NH(2-Me-phenyl)-CO}-[X1]LD[Ile(3ξ)]P-NH2) showed a concentration for half-maximal inhibition (IC50) of 1.9 nM.

Turning to `CCC(C)[C@H](NC(=O)[C@H](CC(=O)O)NC(=O)[C@H](CCC(C)C)NC(=O)Cc1ccc(NC(=O)Nc2ccccc2C)cc1)C(=O)N1CCC[C@H]1C(N)=O` (stereo partly drawn) [(3S)-3-{[(2S,3S)-1-[(2S)-2-carbamoylpyrrolidin-1-yl]-3-methyl-1-oxopentan-2-yl]carbamoyl}-3-[(2S)-5-methyl-2-[1-(4-{[(2-methylphenyl)carbamoyl]amino}phenyl)acetamido]hexanamido]propanoic acid] ({NH(2-Me-phenyl)-CO}-[X1][hLeu]D[Ile(3ξ)]P-NH2), the IC50 amounted to 3 nM.

In turn, `CCCC(CCC)(NC(=O)Cc1ccc(NC(=O)Nc2ccccc2C)cc1)C(=O)N[C@@H](CC(=O)O)C(=O)N[C@H](C(=O)N1CCC[C@H]1C(N)=O)C(C)CC` (stereo partly drawn) [(3S)-3-{[(2S,3S)-1-[(2S)-2-carbamoylpyrrolidin-1-yl]-3-methyl-1-oxopentan-2-yl]carbamoyl}-3-{2-[1-(4-{[(2-methylphenyl)carbamoyl]amino}phenyl)acetamido]-2-propylpentanamido}propanoic acid] ({NH(2-Me-phenyl)-CO}-[X1][Dpg]D[Ile(3ξ)]P-NH2) displayed an IC50 of 450 nM.

`CCCC[C@H](NC(=O)Cc1ccc(NC(=O)Nc2ccccc2C)cc1)C(=O)N[C@@H](CC(=O)O)C(=O)N[C@H](C(=O)N1CC(OCc2ccccc2)C[C@H]1C(N)=O)C(C)CC` (stereo partly drawn) [(3S)-3-{[(2S,3S)-1-[(2S)-4-(benzyloxy)-2-carbamoylpyrrolidin-1-yl]-3-methyl-1-oxopentan-2-yl]carbamoyl}-3-[(2S)-2-[1-(4-{[(2-methylphenyl)carbamoyl]amino}phenyl)acetamido]hexanamido]propanoic acid] gave an IC50 (pH 7.5, 22 °C) of 5.3 nM. In other words, the single-digit nanomolar range.

With `CCCC[C@H](NC(=O)Cc1ccc(NC(=O)Nc2ccccc2C)cc1)C(=O)N[C@@H](CC(=O)O)C(=O)N[C@H](C(=O)N1[C@@H](c2ccccc2)CC[C@H]1C(N)=O)C(C)CC` (stereo partly drawn) [(3S)-3-{[(2S,3S)-1-[(2S,5R)-2-carbamoyl-5-phenylpyrrolidin-1-yl]-3-methyl-1-oxopentan-2-yl]carbamoyl}-3-[(2S)-2-[1-(4-{[(2-methylphenyl)carbamoyl]amino}phenyl)acetamido]hexanamido]propanoic acid] ({NH(2-Me-phenyl)-CO}-[X1][Nle]D[Ile(3ξ)][Pro(5R-Ph)]-NH2), the IC50 (pH 7.5, 22 °C) was 38 nM.

`CCCC[C@H](NC(=O)Cc1ccc(NC(=O)Nc2ccccc2C)cc1)C(=O)N[C@@H](CC(=O)O)C(=O)N[C@H](C(=O)N1Cc2ccccc2C[C@@H]1C(N)=O)C(C)CC` (stereo partly drawn) [(3S)-3-{[(2S,3S)-1-[(3R)-3-carbamoyl-1,2,3,4-tetrahydroisoquinolin-2-yl]-3-methyl-1-oxopentan-2-yl]carbamoyl}-3-[(2S)-2-[1-(4-{[(2-methylphenyl)carbamoyl]amino}phenyl)acetamido]hexanamido]propanoic acid] yielded an IC50 (pH 7.5, 22 °C) of 3.2 nM.

The molecule `CCCC[C@H](NC(=O)Cc1ccc(NC(=O)Nc2ccccc2C)cc1)C(=O)N[C@@H](CC(=O)O)C(=O)N[C@H](C(=O)N1CSC[C@H]1C(N)=O)C(C)CC` (stereo partly drawn) [(3S)-3-{[(2S,3S)-1-[(4R)-4-carbamoyl-1,3-thiazolidin-3-yl]-3-methyl-1-oxopentan-2-yl]carbamoyl}-3-[(2S)-2-[1-(4-{[(2-methylphenyl)carbamoyl]amino}phenyl)acetamido]hexanamido]propanoic acid] gave an IC50 (pH 7.5, 22 °C) of 3.1 nM.

Molecule `CCCC[C@H](NC(=O)Cc1ccc(NC(=O)Nc2ccccc2C)cc1)C(=O)N[C@@H](CC(=O)O)C(=O)N[C@H](C(=O)N1CSC[C@@H]1C(N)=O)C(C)CC` (stereo partly drawn) [(3S)-3-{[(2S,3S)-1-[(4S)-4-carbamoyl-1,3-thiazolidin-3-yl]-3-methyl-1-oxopentan-2-yl]carbamoyl}-3-[(2S)-2-[1-(4-{[(2-methylphenyl)carbamoyl]amino}phenyl)acetamido]hexanamido]propanoic acid] registered an IC50 (pH 7.5, 22 °C) of 3.2 nM.

`CCCC[C@H](NC(=O)Cc1ccc(NC(=O)Nc2ccccc2C)cc1)C(=O)N[C@@H](CCCC(=O)O)C(=O)N[C@H](C(=O)N1CCC[C@H]1C(N)=O)C(C)CC` (stereo partly drawn) [(5S)-5-{[(2S,3S)-1-[(2S)-2-carbamoylpyrrolidin-1-yl]-3-methyl-1-oxopentan-2-yl]carbamoyl}-5-[(2S)-2-[1-(4-{[(2-methylphenyl)carbamoyl]amino}phenyl)acetamido]hexanamido]pentanoic acid] ({NH(2-Me-phenyl)-CO}-[X1][Nle][Aad][Ile(3ξ)]P-NH2) displayed an IC50 of 3.4 nM.
